Test results reported in US5348956A, “Substituted cyclopropylamino-1,3,5-triazines” (UCB S.A., priority 1991, dated 1994).
Where two headings read alike, the source gives them in different places.

Assays:
[1] = multiple-trial passive avoidance: learning; type: in vivo, male Sprague-Dawley rats
Procedure: To evaluate whether a compound can promote learning, the following test is carried out. […] Rats which remain on the mat for this period have acquired the avoidance reflex and are replaced in their original cage without receiving the electric shock. […] The results obtained in the test used to evaluate learning are given in columns 3 and 4. […] The results were analyzed by the Student test.

[2] = tested on: bronchospasm induced by serotonin; assay: bronchospasmolytic activity (Konzett and Roessler), bronchospasm induced by serotonin; type: in vivo, Dunkin-Hartley guinea-pig; settings: Cavia porcellus; intravenous; serotonin-induced bronchospasm; read-out: Doses (ID50), Serotonin
Procedure: (§1) This activity was measured in the Dunkin-Hartley guinea-pig by the method of H. KONZETT and […] (Naunyn Schmiedebergs Arch. exp. Path. […] The anesthetized (urethane) and curarized (gallamine) guinea-pig is placed under assisted respiration. The endotracheal pressure is recorded. […] The compound to be tested is also administered intravenously two minutes before the administration of the spasmogen and then in 3 to 4 cumulative doses in increasing amounts at intervals of 15 minutes. Six animals per compound to be tested and per spasmogen are used.

[3] = tested on: bronchospasm induced by histamine; assay: bronchospasmolytic activity (Konzett and Roessler), bronchospasm induced by histamine; type: in vivo, Dunkin-Hartley guinea-pig; settings: Cavia porcellus; intravenous; histamine-induced bronchospasm; read-out: Doses (ID50), Histamine
Procedure: as §1

[4] = tested on: bronchospasm induced by acetylcholine; assay: bronchospasmolytic activity (Konzett and Roessler), bronchospasm induced by acetylcholine; type: in vivo, Dunkin-Hartley guinea-pig; settings: Cavia porcellus; intravenous; acetylcholine-induced bronchospasm; read-out: Doses (ID50), Acetylcholine
Procedure: as §1

[5] = tested on: plantar edema induced by immune complexes; assay: "reverse passive Arthus" (RPA) test, anti-inflammatory and anti-edema activity; type: in vivo, Sprague-Dawley rat; settings: Rattus norvegicus, intravenous
Procedure: The reaction between a soluble antigen and antibodies in the organism may lead to an acute inflammatory reaction accompanied by release of histamine, modification of vascular permeability and formation of a localized edema. […] To this end, the Arthus reaction is induced by subplantar administration of 0.1 ml of heterologous antivalbumin reaginic serum into the right hind paw and by simultaneous intravenous injection of 1 ml/kg ovalbumin (25 mg/ml). The compound to be tested is administered intravenously 30 seconds before induction of the Arthus reaction, in a least 3 different doses. A group of 6 rats is used per dose of compound to be tested. The volume of the paw is measured by plethysmometry before the Arthus reaction and 3 to 5 hours after induction of the Arthus reaction, both in the control animals and in the treated animals. The effect of a compound on the reduction in the edema for each dose and at each measurement time (3 hours and 5 hours) is expressed in % of the edema observed in the control animals. The doses of the compounds (ID30 in μmole/kg) which inhibit by 30%, on average over all the animals, the volume of the edema observed in the control animals are given in Table VII below.

[6] = tested on: anaphylactic release of histamine, guinea-pig lung sections; assay: inhibition of the anaphylactic release of histamine (proper effect); type: cell-based, Dunkin-Hartley guinea-pigs; settings: Cavia porcellus, in vitro, read-out: Minimum inhibitory dose (MID)
Procedure: (§2) Dunkin-Hartley guinea-pigs which are first passively sensitized by an intravenous injection of 1 ml of isologous antiovalbumin serum are used. Twenty-four hours after the injection, the lungs are then perfused with a Tyrode buffer to evacuate the blood, and then removed and cut into sections of 1 mm. These sections are divided up into test tubes (3 sections per tube) to give 10 experimental groups of lung sections per guinea-pig. A "positive" control group of lung sections is stimulated by addition of an ovalbumin solution (0.1 mg/ml) to induce the anaphylactic release of histamine and serves to determine the maximum amount of histamine (100%) which can be released. A "negative" control group which is not stimulated by ovalbumin serves to determine the naturally released amount of histamine (spontaneous release). In three other groups, the lung sections are incubated at 37° C. for 30 minutes in the ovalbumin solution in the presence of three different doses of the compound to be tested (one dose per group). […] At this dose, isoprenaline inhibits the release of histamine by 30 to 40%, which is verified on a control group treated only with isoprenaline alone at this dose. In addition, a supplementary control group which is not stimulated by ovalbumin is used to detect a possible spontaneous release of histamine by the highest dose of the compound tested. In each group, the histamine released in the incubation medium is measured by spectrofluorometry (D. P. EVANS et al., Life Sci., 12, (1973), 327-336).

[7] = tested on: anaphylactic release of histamine, guinea-pig lung sections; assay: potentiation of the inhibition of anaphylactic histamine release by isoprenaline; type: cell-based, Dunkin-Hartley guinea-pigs; settings: with isoprenaline 10^-7 mole per liter
Procedure: as §2

[8] = tested on: longitudinal muscles of the ileum contracted by histamine; assay: potentiation of the myorelaxing effect of isoprenaline on the ileum; type: cell-based, Dunkin-Hartley guinea-pigs; settings: with isoprenaline 10^-7 mole/l; histamine 3.2 μmoles/l
Procedure: (cf. R. A. TURNER, "Screening Methods in Pharmacology", Ed. Acad. Press, San Diego, 1965, chapter IV, pages 43-47). […] Inhibition cycle: When the successive contractions induced by the histamine injections have become reproducible, the compound to be tested is injected immediately after the second wash. The contraction induced by the following injection of histamine is measured and compared with the average of the three preceding contractions caused by the repeated injections of histamine (control contractions). From the result obtained, the percentage inhibition of the contraction is calculated. Several cycles of histamine injection are then performed again, until the contractions of the muscle become reproducible again; the muscle is then ready for testing of another compound. The potentiating effect of a compound is measured in the course of a so-called "potentiation" cycle, which comprises three successive inhibition cycles. […] In the course of the second inhibition cycle, the percentage inhibition of the contraction obtained with the compound to be tested, injected alone at a given dose, is determined. In the third inhibition cycle, isoprenaline and the compound to be tested are injected simultaneously, and the percentage inhibition of the contraction is calculated for the dose used of the compound tested. The same experiments are repeated for each of the doses of the compounds tested.

[9] = tested on: PMN granulocytes; assay: inhibition of the stimulation of PMN granulocytes (chemiluminescence); type: cell-based, Rat; settings: Rattus norvegicus; 10^-6 mole/l; FMLP 3.2×10^-7 mole/liter; read-out: Residual chemiluminescence
Text: Polymorphonuclear neutrophil granulocytes (PMN) are cells which are mobilized during inflammatory phenomena and which can be stimulated by various compounds, such as, for example, formylmethionyl-leucylphenylalanine (FMLP) or prostaglandins E (PGE1). The PMN granulocytes respond to these extracellular stimuli with an activation of the oxygen metabolism with release of toxic oxygenated metabolites. An excessive response of the PMN granulocytes may be the cause of a painful inflammation and is also accompanied by a reduction in the level of cyclic adenosine monophosphate (cAMP) in these granulocytes. Consequently, compounds which inhibit the respiratory burst of PMN granulocytes or which increase the level of cAMP can be regarded as very important in the treatment of arthritis and asthma. […] Rat PMN granulocytes (5×10^6 /ml) are preincubated in a phosphate buffer ([…], pH 7.4), containing luminol at a concentration of 10^-5 mole per liter, for 15 minutes at 37° C. and then for 5 minutes in the presence of the compound to be treated at a concentration of 10^-6 mole/liter. […] The luminescence which results from the stimulation is measured by means of an LKB 1251 luminometer according to the method of […] and […] (Infection and Immunology, 37, (1982), 34-39). An experimental cycle lasts 38 seconds. The reaction is repeated 9 times for each compound to be tested and the average of the results obtained is calculated.

[10] = toxicity, Irwin's test; type: in vivo; settings: i.p.; death of two animals out of three within 48 hours
Procedure: Progressive doses of the compound to be tested are administered intraperitoneally to groups of three mice until the lethal dose is reached (dose which causes the death of two animals out of three within 48 hours).

[11] = tested on: amnesia induced by scopolamine; assay: multiple-trial passive avoidance: mnemic retention, amnesia induced by scopolamine
Procedure: To this end, the method of multiple-trial passive avoidance has been used. […] The test is carried out on male Sprague-Dawley rats (160-200 g). which are kept in standard cages throughout the experiment. The apparatus used is a transparent square cage with 35 cm sides and 25 cm high, fitted with a grid floor which can be electrified. A rubber insulating mat (10×17 cm) is placed on the floor in one of the corners of the cage.
Each animal is subjected to four tests at times 0, 4, 24 and 28 hours. In the first test (time 0), the animal is placed on the rubber mat and the time which it takes to decide to leave this position to explore the cage is recorded. After 20 seconds of exploration, the rat receives an electric shock (3 seconds duration) in the paws, causing an escape reaction. The rat is immediately removed from the apparatus and replaced in its original cage. In the course of the three subsequent tests (times: 4, 24 and 28 hours), the animal is replaced on the rubber mat and the time taken to leave this position is recorded. As soon as the four paws of the animal rest on the grid, it receives an electric shock and is removed immediately from the apparatus.
At the start of the experiment, the rats are divided into 4 homogeneous groups of 15 animals. Thirty minutes before each test, each group of animals is subjected to a predetermined treatment:
Groups 1 and 2 are used in the first experiment (learning) and groups 3 and 4 in the second experiment (mnemic retention).
The differences found are analyzed statistically by the Mann-Whitney method.

[12] = tested on: serotonergic activity; assay: "wet dog shake" (WDS) behavior, serotonergic activity; type: in vivo, male Sprague-Dawley rats; settings: 0.99 mg/kg i.p., counted over 30 minutes
Procedure: A decrease in serotonergic activity has been correlated with the occurrence of affective disorders, such as depression and anxiety. […] The test is carried out in the morning on male Sprague-Dawley rats (±180 g), divided the previous day into groups of 8 animals in residence cages. The cage used for the tests is a transparent enclosure of 12×24×30 cm in height, the floor of which is covered with a layer of sand. The compounds to be tested, dissolved either in physiological salt solution or in a citrate buffer of pH 5, are administered intraperitoneally in a different dose for each group treated. The control groups receive an intraperitoneal injection of the same vehicle (either physiological salt solution or citrate buffer). […] The mean values of the results are calculated and analyzed statistically by the Mann-Whitney method. The mean values of the number of shakes obtained for the compounds according to the invention administered intraperitoneally at the doses indicated (in mg/kg) are given in Table V below.

[13] = 3 hours after induction of the Arthus reaction, read-out: Dose (ID30), 3 hours
[14] = 5 hours after induction of the Arthus reaction, read-out: Dose (ID30), 5 hours

| SMILES | ED50 [2] [µmol/kg] | ED50 [3] [µmol/kg] | ED50 [4] [µmol/kg] | ED30 [5, 13] [µmol/kg] | ED30 [5, 14] [µmol/kg] | minimal effective concentration [6] [µM] | Minimum potentiating dose (MPD) [7] [µmol/L] | Minimum potentiating dose (MPD) [8] [µmol/L] | activity at 1 µM [9] [%] | Lethal dose [10] [mg/kg] | also measured |
| --- | --- | --- | --- | --- | --- | --- | --- | --- | --- | --- | --- |
| Cc1nc(NC2CC2)nc(N2CC3CCC(C2)O3)n1.Cl [Compound 9, 2-Cyclopropylamino-4-methyl-6-(8-oxa-3-azabicyclo[3,2,1]oct-3-yl)-1,3,5-triazine hydrochloride] | 1 | 0.4 | 2.1 | 3.4 | 4.4 | 3.2 | 3.2 | 10.0 | 82 | 297.8 | Learning, average number of trials, group 2 ([1]; 3.0 mg/kg i.p.): 2.9 trials; Period of remaining on the mat, group 4 ([11]; 4 hours, 3.0 mg/kg i.p. + 0.5 mg scopolamine): 17.3 s; Period of remaining on the mat, group 4 ([11]; 24 hours, 3.0 mg/kg i.p. + 0.5 mg scopolamine): 38.1 s; Period of remaining on the mat, group 4 ([11]; 28 hours, 3.0 mg/kg i.p. + 0.5 mg scopolamine): 65.2 s; Period of remaining on the mat, group 4 ([11]; time 0, 3.0 mg/kg i.p. + 0.5 mg scopolamine): 3.6 s |
| CCc1nc(NC2CC2)nc(N2CC3CCC(C2)O3)n1 [Compound 10] | 0.3 | 0.1 | 0.5 | – | – | 3.2 | 0.32 | 1.0 | 56 | 311.8 | Period of remaining on the mat, group 4 ([11]; 4 hours, […] i.p. + 0.5 mg scopolamine): 20.3 s; Period of remaining on the mat, group 4 ([11]; 24 hours, […] i.p. + 0.5 mg scopolamine): 78.9 s; Period of remaining on the mat, group 4 ([11]; 28 hours, […] i.p. + 0.5 mg scopolamine): 142.0 s; Period of remaining on the mat, group 4 ([11]; time 0, […] i.p. + 0.5 mg scopolamine): 5.7 s |
| O=S1(=O)CCN(c2nc(NC3CC3)nc(C3CC3)n2)CC1 [Compound 20, 2-Cyclopropyl-4-cyclopropylamino-6-thiomorpholino-1,3,5-triazine S,S-dioxide] | 0.4 | 0.03 | 0.1 | 1 | 0.5 | 1 | 0.32 | 0.1 | – | 185 | Average number of shakes [12]: 13.6 ± 2.3 shakes |
| CNC(=O)Oc1ccc2c(c1)[C@]1(C)CCN(C)[C@@H]1N2C [physostigmine, reference compound] | – | – | – | – | – | – | – | – | – | – | Learning, average number of trials, group 2 ([1]; 0.4 mg/kg i.p.): 2.3 trials; Period of remaining on the mat, group 4 ([11]; 4 hours, 0.4 mg/kg i.p. + 0.5 mg scopolamine): 17.8 s; Period of remaining on the mat, group 4 ([11]; 24 hours, 0.4 mg/kg i.p. + 0.5 mg scopolamine): 56.2 s; Period of remaining on the mat, group 4 ([11]; 28 hours, 0.4 mg/kg i.p. + 0.5 mg scopolamine): 53.4 s; side effects / toxicity at the active dose ([11]; at the dose active against scopolamine amnesia): at a dose which has side effects and is very close to the toxic dose; action against the amnesic effect of scopolamine ([11]; similar to that of the compounds according to the invention): favorable action against the amnesic effect of scopolamine; Period of remaining on the mat, group 4 ([11]; time 0, 0.4 mg/kg i.p. + 0.5 mg scopolamine): 1.9 s |
